This is an account of results in patent EP0933027A1, “Methods and compositions for protecting animals and humans against attack and infestation by arthropod and helminth parasites” (American Cyanamid Company, priority 1998, dated 1999).

Experiment [1] relates to Pyrethroid-susceptible horn fly (Haematobia irritans). Description: Treated filter paper test against adult pyrethroid-susceptible horn fly. The settings on record: corrected for control mortality. The protocol: (§1) Test doses are expressed as µg of test substance per cm^2 of filter paper. • 1) Prepare solutions of test compound in acetone such that 800 or 1000 µL contains the amount necessary to obtain the desired dose rate. • 2) Pipette 800 or 1000 µL of test solution onto filter paper. • 3) Filter papers are dried under a fume hood. • 4) When dry, filter papers are placed in the petri dish tops. Dishes are generally held about 24 hours before test organism is added. • 5) Two- to five-day-old horn flies (pyrethroid-susceptible or -resistant) which have had two or more blood meals are used in the assay. Flies are collected into a small vial from the holding cage. Vials are then chilled in a freezer for about 4 minutes to immobilize the flies. Immobilized flies are then distributed to petri dish bottoms, 12 to 25 flies per dish, then dishes are closed and inverted. • 6) As soon as the flies become mobile (about 5 minutes), they are examined to detect any flies that are dead or injured. This number is subtracted from total number of flies in the dish. • 7) Petri dishes are held at room temperature and examined at the desired time intervals which might be 10 minutes to 6 hours. • 8) All dead flies are recorded at each examination time. […] 10) Percent mortality at any time period is calculated using the following formula: (Number of dead flies - number dead @ 5 min)/(Total number of flies - number dead @ 5 min)x 100 [formula] Percent mortality is then corrected for control mortality using Abbot's formula.

Experiment [2] has as its system Pyrethroid-resistant horn fly (Haematobia irritans). The experiment is described as follows: Treated filter paper test against adult pyrethroid-resistant horn fly. The settings on record: corrected for control mortality. The procedure: as §1

A word on the mortality: it is the share of the test organisms that died. A low value points to a weak lethal effect. Molecule `F/C(=C\Cc1ccc(F)c(Oc2ccccc2)c1)C(c1ccc(Cl)cc1)C1CC1` (centres unmarked) [Compound 5, 1-[1-(p-Chlorophenyl)-2-fluoro-4-(4-fluoro-3-phenoxyphenyl)-2-butenyl]cyclopropane, (Z)-] yielded a mortality at 0.156 µg/cm2 in experiment [1] (dose 0.1560 µg/cm^2, 6 hours) of 0%. Besides, the mortality at 0.3125 µg/cm2 in experiment [1] (dose 0.3125 µg/cm^2, 6 hours) was determined as 5%. In experiment [1] (dose 0.625 µg/cm^2, 6 hours), this molecule returned a mortality at 0.625 µg/cm2 of 27%. Further, the mortality at 1.25 µg/cm2 in experiment [1] (dose 1.25 µg/cm^2, 6 hours) is 88%; in experiment [2] (dose 1.25 µg/cm^2, 6 hours), 0%. Besides, the mortality at 2.5 µg/cm2 in experiment [1] (dose 2.50 µg/cm^2, 6 hours) was 98%; in experiment [2] (dose 2.50 µg/cm^2, 6 hours), 1%. The mortality at 5 µg/cm2 in experiment [1] (dose 5.00 µg/cm^2, 6 hours) came to 100%; in experiment [2] (dose 5.00 µg/cm^2, 6 hours), 7%. The molecule also displayed a mortality at 10 µg/cm2 in experiment [2] (dose 10.0 µg/cm^2, 6 hours) of 33%. In experiment [2] (dose 20.0 µg/cm^2, 6 hours), this molecule came in with a mortality at 20 µg/cm2 of 93%.
